What was measured:
[1] = system: lipid peroxidation in homogenate of murine swiss 3T3 cells; assay: Inhibitory effects on UV-induced lipid peroxidation (homogenate of murine swiss 3T3 cells); format: biochemical; conditions: 1 mM test compound; UVB 0.4 mW/cm^2, 90 min; pH 7.2 to 7.8; TBA, 535 nm
Method: Test for Inhibitory Effects on UV-induced Lipid Peroxidation
The test was carried out on the basis of the methods described in Biochim. Biophys. […] Namely, 12 μl of an aqueous sodium hydroxide solution of each of the test compounds shown in Table 5 below was added to 1.2 ml of a homogenate of murine swiss 3T3 cells (i.e. a kind of murine skin cells) prepared by a conventional method in 20 mM phosphate buffer (protein content: 1.5 to 1.8 mg/ml). The final concentration of the test compounds was adjusted to be 1 mM and the pH of the solution was adjusted to 7.2 to 7.8. If test compounds were not soluble in an aqueous sodium hydroxide solution, they were dissolved in N,N-dimethyl sulfoxide (DMSO).
This solution (1.1 ml) was irradiated with UV rays (0.4 mW/cm^2, 90 min.) using a UVB lamp "EB-280C/J" (manufactured by Spectronics). To an aliquot (1.0 ml) of this solution were successively added 0.2 ml of an aqueous solution of sodium dodecyl sulfate and 1.0 ml of an aqueous solution of thiobarbituric acid/trichloroacetic acid/hydrochloric acid, and the mixed solution was heated in a boiling water bath for 15 minutes. After ice-cooling, the solution was extracted with 1.0 ml of 1-butanol to prepare a sample for determining peroxide lipid as absorbance at a wavelength of 535 nm using a spectrophotometer "Model 320" (manufactured by Hitachi).
(§1) [formula] A1 : Absorbance when a test compound was added. A2 : Absorbance when a test compound was not added.
A3 : Absorbance when a test compound was not added and UV rays were not irradiated.

[2] = system: lipid peroxidation in murine brain homogenate; assay: Inhibitory effects on lipid peroxidation (murine brain homogenate); format: biochemical, murine (C57 black mouse); conditions: 30 μM test compound; no added iron; 37° C., 60 minutes; pH 7.2 to 7.8
Method: (§2) The test was carried out according to the method described in Method in Enzymol., Vol. 52, page 302, 1978. A C57 black mouse was killed by cervical dislocation, and the whole brain extracted from the dissected head was washed with 20 mM phosphate buffer (hereinafter referred to as "PBS-2"). Then, the brain was added with PBS-2 in an amount of 19 times its wet weight, and the mixture was disrupted and homogenized with a homogenizer "Polytron" (manufactured by Kinematica). The thus prepared 5% solution of the murine brain homogenate in PBS-2 was diluted 1:5 with fresh PBS-2. To 800 μl of the resulting 1% solution of the murine brain homogenate in PBS-2 (protein content: 0.8 to 1.0 mg/ml) were successively added 100 μl of a PBS-2 solution of each of the test compounds shown in Table 7 below and 100 μl of an aqueous solution of ammonium iron (II) sulphate. The final concentration of the test compounds and ammonium iron (II) sulphate were adjusted to be 1 mM and 100 μM, respectively. If test compounds were not soluble in PBS-2 alone, an aqueous sodium hydroxide solution or DMSO was added. The pH of the solution was adjusted to 7.2 to 7.8.
Test for Inhibitory Effects on Lipid Peroxidation
To 900 μl of a 5% solution of the murine brain homogenate in PBS-2 prepared in the same way as described in Test Example 3 was added 100 μl of a PBS-2 solution of each of the test compounds shown in Table 8 below. The final concentration of the test compounds was adjusted to be 30 μM. If test compounds were not soluble in PBS-2 alone, an aqueous solution of sodium hydroxide or DMSO was added. The pH of the solution was adjusted to 7.2 to 7.8.
The solution after heated at 37° C. for 60 minutes was added with 1.0 ml of an aqeuous solution of thiobarbituric acid/trichloroacetic acid/hydrochloric acid, and the mixture was heated in a boiling water bath for 15 minutes. After ice-cooling, the solution was extracted with 2.0 ml of 1-butanol to prepare a sample for determining the lipid peroxide in the same way as described in Test Example 1. […] [formula] A4 : Absorbance when a test compound was added. A5 : Absorbance when a test compound was not added.
A6 : Abosrbance when a test compound was not added and heating at 37° C. for […] was not carried out.

[3] = system: lipid peroxidation in murine brain homogenate; assay: Inhibitory effects on metal ion-induced lipid peroxidation (murine brain homogenate); format: biochemical, murine (C57 black mouse); conditions: 1 mM test compound; 100 μM ammonium iron (II) sulphate; 37° C., 30 minutes; pH 7.2 to 7.8
Method: Test for Inhibitory Effects on Metal Ion-induced Lipid Peroxidation
as §2
The solution after heated at 37° C. for 30 minutes was added with 2.0 ml of an aqueous solution of thiobarbituric acid/trichloroacetic acid/hydrochloric acid, and the mixture was heated in a boiling water bath for 15 minutes. After ice-cooling, the solution was extracted with 1.0 ml of 1-butanol to prepare a sample for determining the peroxide lipid in the same way as described in Test Example 1.
as §1
A3 : Absorbance when a test compound was not added and heating at 37° C. for 30 minutes was not carried out.

| Compound | % Inhibition of metal ion-induced lipid peroxidation [3] [%] | also measured |
| --- | --- | --- |
| O=C(O)CN(CCN(CC(=O)O)CC(=O)O)CC(=O)O [EDTA, reference compound] | – | % Inhibition of UV-induced lipid peroxidation [1]: 34% |
| O=C(O)CCC(NCc1ccccc1O)C(=O)O (stereo not shown) [Synthesis Example 5] | – | % Inhibition of UV-induced lipid peroxidation [1]: 52% |
| CC(NCc1ccccc1O)C(=O)O (stereo not shown) [Synthesis Example 6] | – | % Inhibition of UV-induced lipid peroxidation [1]: 66% |
| O=C(O)C(Cc1ccccc1)NCc1ccccc1O (stereo not shown) [Synthesis Example 7] | – | % Inhibition of UV-induced lipid peroxidation [1]: 48% |
| CC(C)C(NCc1ccccc1O)C(=O)O (stereo not shown) [Synthesis Example 8] | – | % Inhibition of UV-induced lipid peroxidation [1]: 60% |
| O=C(O)CNCc1ccccc1O [Synthesis Example 9] | – | % Inhibition of UV-induced lipid peroxidation [1]: 60% |
| CC(O)C(NCc1ccccc1O)C(=O)O (stereo not shown) [Synthesis Example 10] | – | % Inhibition of UV-induced lipid peroxidation [1]: 56% |
| NC(=O)CNCc1ccccc1O [Synthesis Example 11] | – | % Inhibition of UV-induced lipid peroxidation [1]: 77% |
| O=C(O)CCNCc1ccccc1O [Synthesis Example 12] | – | % Inhibition of UV-induced lipid peroxidation [1]: 29% |
| O=S(=O)(O)CCNCc1ccccc1O [Synthesis Example 13] | – | % Inhibition of UV-induced lipid peroxidation [1]: 53% |
| OCCNCc1ccccc1O [Synthesis Example 14] | – | % Inhibition of UV-induced lipid peroxidation [1]: 45% |
| Oc1ccccc1CNCCc1c[nH]cn1 [Synthesis Example 15] | – | % Inhibition of UV-induced lipid peroxidation [1]: 51% |
| Cc1ncc(CO)c(CNC(C)C(=O)O)c1O (stereo not shown) [Synthesis Example 17] | – | % Inhibition of lipid peroxidation [2]: 56% |
| Cc1ncc(CO)c(CNC(C(=O)O)C(C)O)c1O (stereo not shown) [Synthesis Example 19] | – | % Inhibition of lipid peroxidation [2]: 59% |
| Cc1ncc(CO)c(CNC(CC(=O)O)C(=O)O)c1O (stereo not shown) [Synthesis Example 20] | – | % Inhibition of lipid peroxidation [2]: 91% |
| Cc1ncc(CO)c(CNC(Cc2c[nH]cn2)C(N)=O)c1O (stereo not shown) [Synthesis Example 23] | – | % Inhibition of lipid peroxidation [2]: 39% |
| Cc1ncc(CO)c(CNC(CCCNC(=N)N)C(=O)O)c1O (stereo not shown) [Synthesis Example 24] | – | % Inhibition of lipid peroxidation [2]: 85% |
| Cc1ncc(CO)c(CNC(Cc2ccccc2)C(=O)O)c1O (stereo not shown) [Synthesis Example 25] | – | % Inhibition of lipid peroxidation [2]: 55% |
| Cc1ncc(CO)c(CNC(Cc2ccc(O)cc2)C(=O)O)c1O (stereo not shown) [Synthesis Example 26] | – | % Inhibition of lipid peroxidation [2]: 39% |
| O=C(O)C(Cc1ccc(O)c(O)c1)N=Cc1c(O)ccc2ccccc12 (stereo not shown) [Synthesis Example 32] | 83 | – |
| OCC(Cc1c[nH]cn1)N=Cc1c(O)ccc2ccccc12 (stereo not shown) [Synthesis Example 33] | 95 | – |
| O=C(O)CN=Cc1c(O)ccc2ccccc12 [Synthesis Example 34] | 57 | – |
| NC(=O)CN=Cc1c(O)ccc2ccccc12 [Synthesis Example 35] | 16 | – |
| CC(N=Cc1c(O)ccc2ccccc12)C(=O)O (stereo not shown) [Synthesis Example 36] | 80 | – |
| CC(C)C(CO)N=Cc1c(O)ccc2ccccc12 (stereo not shown) [Synthesis Example 37] | 30 | – |
| CC(C)CC(N=Cc1c(O)ccc2ccccc12)C(=O)O (stereo not shown) [Synthesis Example 38] | 74 | – |
| CCC(C)C(N=Cc1c(O)ccc2ccccc12)C(=O)O (stereo not shown) [Synthesis Example 39] | 50 | – |

| Compound | % Inhibition of metal ion-induced lipid peroxidation [3] [%] | also measured |
| --- | --- | --- |
| COC(=O)C(CO)N=Cc1c(O)ccc2ccccc12 (stereo not shown) [Synthesis Example 40] | 88 | – |
| CC(O)C(N=Cc1c(O)ccc2ccccc12)C(=O)O (stereo not shown) [Synthesis Example 41] | 79 | – |
| CSCCC(N=Cc1c(O)ccc2ccccc12)C(=O)O (stereo not shown) [Synthesis Example 42] | 86 | – |
| O=C(O)CC(N=Cc1c(O)ccc2ccccc12)C(=O)O (stereo not shown) [Synthesis Example 43] | 40 | – |
| NC(=O)CC(N=Cc1c(O)ccc2ccccc12)C(=O)O (stereo not shown) [Synthesis Example 44] | 90 | – |
| COC(=O)C(Cc1c[nH]cn1)N=Cc1c(O)ccc2ccccc12 (stereo not shown) [Synthesis Example 45] | 85 | – |
| Oc1ccc2ccccc2c1C=NCCc1c[nH]cn1 [Synthesis Example 46] | 80 | – |
| COC(=O)CCC(N=Cc1c(O)ccc2ccccc12)C(=O)OC (stereo not shown) [Synthesis Example 49] | 81 | – |
| O=C(CCC(N=Cc1c(O)ccc2ccccc12)C(=O)O)NO (stereo not shown) [Synthesis Example 50] | 85 | – |
| NC(=O)CCC(N=Cc1c(O)ccc2ccccc12)C(=O)O (stereo not shown) [Synthesis Example 51] | 84 | – |
| O=C(O)C(Cc1ccccc1)N=Cc1c(O)ccc2ccccc12 (stereo not shown) [Synthesis Example 54] | 83 | – |
| O=C(O)C(Cc1c[nH]c2ccccc12)N=Cc1c(O)ccc2ccccc12 (stereo not shown) [Synthesis Example 55] | 87 | – |
| Oc1ccc2ccccc2c1C=NCCc1c[nH]c2ccccc12 [Synthesis Example 56] | 57 | – |
| O=C(O)C(CO)N=Cc1cc(Cl)ccc1O (stereo not shown) [Synthesis Example 57] | 44 | – |
| O=C(O)C(CO)N=Cc1cc(Br)ccc1O (stereo not shown) [Synthesis Example 58] | 40 | – |
| O=C(O)C(CO)N=Cc1cc([N+](=O)[O-])ccc1O (stereo not shown) [Synthesis Example 59] | 11 | – |
| O=C(O)C(Cc1c[nH]cn1)N=Cc1cc(Cl)ccc1O (stereo not shown) [Synthesis Example 61] | 45 | – |
| O=C(O)C(Cc1c[nH]cn1)N=Cc1cc(Br)ccc1O (stereo not shown) [Synthesis Example 62] | 45 | – |
| COc1cccc(C=NC(Cc2c[nH]cn2)C(=O)O)c1O (stereo not shown) [Synthesis Example 63] | 60 | – |
| CC(C)C(N=Cc1cc(Cl)ccc1O)C(=O)O (stereo not shown) [Synthesis Example 64] | 60 | – |
| O=S(=O)(O)CCN=Cc1c(O)ccc2ccccc12 [Synthesis Example 65] | 73 | – |
| O=C(O)CNC(=O)CN=Cc1c(O)ccc2ccccc12 [Synthesis Example 66] | 20 | – |
| COC(=O)C(Cc1ccccc1)NC(=O)C(CC(=O)O)N=Cc1c(O)ccc2ccccc12 (stereo not shown) [Synthesis Example 67] | 38 | – |
| CCC(C)C(N=Cc1c(CO)cnc(C)c1O)C(=O)O (stereo not shown) [Synthesis Example 72] | 14 | – |
| O=C1O[C@H]([C@@H](O)CO)C(O)=C1O [Vitamin C, reference compound] | -23 | % Inhibition of lipid peroxidation [2]: -22% |
| Vitamin E [reference compound] | 29 | % Inhibition of lipid peroxidation [2]: 30% |

From patent US5594012A, “Amino acid derivatives and anti-active oxygen agents” (Ajinomoto Co., Inc., priority 1992, dated 1997)
